Laboratory results taken from patent US7687643B2, “Process for preparing 3,3-dimethylindolines” (Amgen Inc., priority 2001, dated 2010).

What follows are compounds tested on Human Umbilical Vein Endothelial cells (VEGF-stimulated) (assay: HUVEC proliferation assay, VEGF-stimulated). Conditions: VEGF 50 ng/mL, 72 h, CyQuant, read-out: inhibited VEGF-stimulated HUVEC proliferation at a level.
Assay type: cell-based
In short: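 Pooled-donor HUVECs (passage 2–3) seeded in DMEM+10% FBS for 22 h, then pre-treated 2–3 h with five-point, five-fold compound dilutions (0.25% DMSO final). Stimulated with 50 ng/mL VEGF (bFGF 20 ng/mL on separate plates) for 72 h at 37 °C. CyQuant fluorescence (485/530 nm) after freeze-thaw; IC50 from 4-parameter fit.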
In the case of `COc1cc(CNc2ncccc2C(=O)Nc2ccc(C(C)C)cc2)ccn1` [Example 140, (2-{[(2-Methoxy(4-pyridyl))methyl]amino}(3-pyridyl))-N-[4-(methylethyl)phenyl]carboxamide], the IC50 is reported as less than 50 nM.
Compound `CC1(C)COc2cc(NC(=O)c3cccnc3NCc3ccncc3)ccc21` [Example 973, N-(3,3-Dimethyl-2,3-dihydro-benzofuran-6-yl)-2-[(pyridin-4-ylmethyl)-amino]-nicotinamide] has an IC50 of less than 50 nM.
Compound `CNc1nccc(CNc2ncccc2C(=O)Nc2ccc(C(C)(C)C)c(NC(=O)CN(C)C)c2)n1` [Example 1077, N-(4-(1,1-dimethylethyl)-3-((N,N-dimethylglycyl)amino)phenyl)-2-(((2-(methylamino)-4-pyrimidinyl)methyl)amino)-3-pyridinecarboxamide] has an IC50 of less than 50 nM.
Work on `CCOC(=O)N1CC2(CC2)c2ccc(NC(=O)c3cccnc3NCc3ccnc(NC)c3)cc21` [Example 1106, Ethyl [1,2-dihydro-6-({2-[(2-methylamino-pyridin-4-ylmethyl)-amino]-pyridine-3-carbonyl}-amino)-3-spiro-1′-cyclopropyl-1H-indole]-1-carbamate] yielded an IC50 of less than 50 nM.
`CC1(C)CCNc2cc(NC(=O)c3cccnc3NCc3ccnc(N4CCOCC4)c3)ccc21` [Example 1154, N-(4,4-Dimethyl-1,2,3,4-tetrahydro-quinolin-7-yl)-2-[(2-morpholin-4-yl-pyridin-4-ylmethyl)-amino]-nicotinamide] was tested, and the IC50 was less than 50 nM.
In the case of `COc1nccc(CNc2ncccc2C(=O)Nc2ccc3c(c2)CNCC3(C)C)n1` [Example 1132, N-(4,4-Dimethyl-1,2,3,4-tetrahydro-isoquinolin-7-yl)-2-[(2-methoxy-pyrimidin-4-ylmethyl)-amino]-nicotinamide], the IC50 is reported as less than 50 nM.
`O=C(Nc1ccc(C(F)(F)F)c(OCCN2CCCC2)c1)c1cccnc1NCc1ccncn1` [Example 1024, 2-((4-Pyrimidinylmethyl)amino)-N-(3-((2-(1-pyrrolidinyl)ethyl)oxy)-4-(trifluoromethyl)phenyl)-3-pyridinecarboxamide] gave an IC50 of less than 50 nM.
`CS(=O)(=O)Nc1cc(NC(=O)c2cccnc2NCc2ccncc2)cc(C(F)(F)F)c1` [Example 1095, N-(3-((methylsulfonyl)amino)-5-(trifluoromethyl)phenyl)-2-((4-pyridinylmethyl)amino)-3-pyridinecarboxamide] was tested, and the IC50 was less than 50 nM.
Work on `CC(C)c1ccc(NC(=O)c2cc(F)cnc2NCc2ccncc2)cc1` [Example 67, {5-Fluoro-2-[(4-pyridylmethyl)amino](3-pyridyl)}-N-[4-(isopropyl)phenyl]carboxamide] yielded an IC50 of less than 50 nM.
`CNc1cc(CNc2ncccc2C(=O)Nc2ccc3c(c2)N(C(C)=O)CC3(C)C)ccn1` [Example 1103, N-(1-Acetyl-3,3-dimethyl-2,3-dihydro-1H-indol-6-yl)-2-[(2-methylamino-pyridin-4-ylmethyl)-amino]-nicotinamide] showed an IC50 of less than 50 nM.
Work on `O=C(Nc1cc(NC(=O)c2cccnc2NCc2ccncc2)cc(C(F)(F)F)c1)O[C@H]1CCOC1` [Example 1088, (3S)-tetrahydro-3-furanyl 3-(((2-((4-pyridinylmethyl)amino)-3-pyridinyl)carbonyl)amino)-5-(trifluoromethyl)phenylcarbamate] yielded an IC50 of less than 50 nM.
For `CC(CNc1cc(CNc2ncccc2C(=O)Nc2ccc3c(c2)NCC3(C)C)ccn1)N1CCOCC1` (centres unmarked) [Example 1008, N-(3,3-dimethyl-2,3-dihydro-1H-indol-6-yl)-2-{[2-(2-morpholin-4-yl-propylamino)-pyridin-4-ylmethyl]-amino}-nicotinamide], the IC50 was less than 50 nM.
Compound `CN1CC(C)(C)c2ccc(NC(=O)c3cccnc3NCc3ccncc3)cc21` [Example 1184, 2-[(Pyridin-4-ylmethyl)-amino]-N-(1,3,3-trimethyl-2,3-dihydro-1H-indol-6-yl)-nicotinamide] has an IC50 of less than 50 nM.
With `O=C(Nc1ccc(Cl)c(Cl)c1)c1cccnc1NCc1ccncc1` [Example 4, N-(3,4-Dichlorophenyl){2-[(4-pyridylmethyl)amino](3-pyridyl)}-carboxamide] the IC50 was less than 50 nM.
Compound `CN1CCC(CCCOc2cc(CNc3ncccc3C(=O)Nc3ccc(C(F)(F)F)cc3)ccn2)CC1` [Example 922, 2-({2-[3-(1-Methyl-piperidin-4-yl)-propoxy]-pyridin-4-ylmethyl}-amino)-N-(4-trifluoromethyl-phenyl)-nicotinamide] has an IC50 of less than 50 nM.
With `O=C(Nc1ccc(C(F)(F)C(F)(F)F)c(OC[C@@H](O)CN2CCCC2)c1)c1cccnc1NCc1ccncc1` [Example 952, (S) N-[3-(2-Hydroxy-3-pyrrolidin-1-yl-propoxy)-4-pentafluoroethyl-phenyl]-2-[(pyridin-4-ylmethyl)-amino]-nicotinamide] the IC50 was less than 50 nM.
`CNc1nccc(CNc2ncccc2C(=O)Nc2cc(OCCNS(C)(=O)=O)cc(C(F)(F)F)c2)n1` [Example 1091, 2-(((2-(methylamino)-4-pyrimidinyl)methyl)amino)-N-(3-((2-((methylsulfonyl)amino)ethyl)oxy)-5-(trifluoromethyl)phenyl)-3-pyridinecarboxamide] was tested, and the IC50 was less than 50 nM.
Compound `CS(=O)(=O)NCCOc1cc(NC(=O)c2cccnc2NCc2ccncc2)ccc1C(F)(F)F` [Example 1032, N-(3-((2-((Methylsulfonyl)amino)ethyl)oxy)-4-(trifluoromethyl)phenyl)-2-((4-pyridinylmethyl)amino)-3-pyridinecarboxamide] has an IC50 of less than 50 nM.
With `CCc1cc(CNc2ncccc2C(=O)Nc2ccc(C(C)(C)C)cc2)ccn1` [Example 873, N-(4-tert-Butyl-phenyl)-2-{[2-ethylpyridin-4-ylmethyl]-amino}-nicotinamide] the IC50 was less than 50 nM.
`CN1CCC[C@H]1COc1cc(NC(=O)c2cccnc2NCc2ccncn2)cc(C(F)(F)F)c1` [Example 1025, N-(3-((((2S)-1-Methyl-2-pyrrolidinyl)methyl)oxy)-5-(trifluoromethyl)phenyl)-2-((4-pyrimidinylmethyl)amino)-3-pyridinecarboxamide] was tested, and the IC50 was less than 50 nM.
For `CC(C)c1ccc(NC(=O)c2cccnc2NCc2ccnc3ccccc23)cc1` [Example 167, N-[4-(Isopropyl)phenyl]{2-[(4-quinolylmethyl)amino](3-pyridyl)}carboxamide], the IC50 was less than 50 nM.
Work on `CNc1nccc(CNc2ncccc2C(=O)Nc2ccc3c(c2)NCC3(C)C)n1` [Example 1040, N-(3,3-Dimethyl-2,3-dihydro-1H-indol-6-yl)-2-(((2-(methylamino)-4-pyrimidinyl)methyl)amino)-3-pyridinecarboxamide] yielded an IC50 of less than 50 nM.
Compound `CN1CCC(CCCOc2cc(CNc3ncccc3C(=O)Nc3cccc(C(F)(F)F)c3)ccn2)CC1` [Example 923, 2-({2-[3-(1-Methyl-piperidin-4-yl)-propoxy]-pyridin-4-ylmethyl}-amino)-N-(3-trifluoromethyl-phenyl)-nicotinamide] has an IC50 of less than 50 nM.
In the case of `O=C(Nc1ccc(C(F)(F)F)c(OCCN2CCCC2)c1)c1cccnc1NCc1ccncc1` [Example 982, 2-[(Pyridin-4-ylmethyl)-amino]-N-[3-(2-pyrrolidin-1-yl-ethoxy)-4-trifluoromethyl-phenyl]-nicotinamide], the IC50 is reported as less than 50 nM.
`CC(C)c1ccc(NC(=O)c2cccnc2NCc2ccc3ocnc3c2)cc1` [Example 1120, 2-((1,3-Benzoxazol-5-ylmethyl)amino)-N-(4-(1-methylethyl)phenyl)-3-pyridinecarboxamide] was tested, and the IC50 was less than 50 nM.
`CN1CC(C)(C)Oc2ccc(NC(=O)c3cccnc3NCc3ccncc3)cc21` [Example 942, 2-[(Pyridin-4-ylmethyl)-amino]-N-(2,2,4-trimethyl-3,4-dihydro-2H-benzo[1,4]oxazin-6-yl)-nicotinamide] showed an IC50 of less than 50 nM.
`CC(C)c1ccc(NC(=O)c2cccnc2NCc2ccncc2)cc1` [Example 25, N-(4-Isopropylphenyl){2-[(4-pyridylmethyl)amino](3-pyridyl)}carboxamide] gave an IC50 of less than 50 nM.
For `CNc1nccc(CNc2ncccc2C(=O)Nc2cc(OC[C@H]3CCCN3C)cc(C(F)(F)F)c2)n1` [Example 1044, 2-(((2-(methylamino)-4-pyrimidinyl)methyl)amino)-N-(3-((((2R)-1-methyl-2-pyrrolidinyl)methyl)oxy)-5-(trifluoromethyl)phenyl)-3-pyridinecarboxamide], the IC50 was less than 50 nM.
`CNc1cc(CNc2ncccc2C(=O)Nc2ccc3c(c2)NC(=O)CC3(C)C)ccn1` [Example 1119, N-(4,4-Dimethyl-2-oxo-1,2,3,4-tetrahydro-quinolin-7-yl)-2-[(2-methylamino-pyridin-4-ylmethyl)-amino]-nicotinamide] gave an IC50 of less than 50 nM.
In the case of `O=C(Nc1ccc(-c2ccccc2)cc1)c1cccnc1NCc1ccncc1` [Example 159, N-(4-Biphenyl){2-[(4-pyridylmethyl)amino](3-pyridyl)}carboxamide], the IC50 is reported as less than 50 nM.
`CNc1cc(CNc2ncccc2C(=O)Nc2cc(Cl)cc(NC(=O)CN(C)C)c2)ccn1` [Example 1149, N-[3-Chloro-5-(2-dimethylamino-acetylamino)-phenyl]-2-[(2-methylamino-pyridin-4-ylmethyl)-amino]-nicotinamide] gave an IC50 of less than 50 nM.
`CNc1cc(CNc2ncccc2C(=O)Nc2ccc3c(c2)NCCC3(C)C)ccn1` [Example 1194] gave an IC50 of less than 50 nM.
`CNc1nccc(CNc2ncccc2C(=O)Nc2ccc3c(c2)N(S(C)(=O)=O)CC3(C)C)n1` [Example 1060, N-(3,3-dimethyl-1-(methylsulfonyl)-2,3-dihydro-1H-indol-6-yl)-2-(((2-(methylamino)-4-pyrimidinyl)methyl)amino)-3-pyridinecarboxamide] gave an IC50 of less than 50 nM.
`COc1cc(CNc2ncccc2C(=O)Nc2ccc3c(c2)NC(=O)CC3(C)C)ccn1` [Example 1116, N-(4,4-Dimethyl-2-oxo-1,2,3,4-tetrahydro-quinolin-7-yl)-2-[(2-methoxy-pyridin-4-ylmethyl)-amino]-nicotinamide] was tested, and the IC50 was less than 50 nM.
`CNc1nccc(CNc2ncccc2C(=O)Nc2cc(NS(C)(=O)=O)cc(C(F)(F)F)c2)n1` [Example 1093, 2-(((2-(methylamino)-4-pyrimidinyl)methyl)amino)-N-(3-((methylsulfonyl)amino)-5-(trifluoromethyl)phenyl)-3-pyridinecarboxamide] showed an IC50 of less than 50 nM.
